Data set [1] relates to Staphylococcus aureus. Briefly: Antibacterial activity against methicillin-resistant Staphylococcus aureus assessed as reduction in bacterial growth. In kind it is functional.
The test system of data set [2] is Mycobacterium tuberculosis. Briefly: Antimycobacterial activity against Mycobacterium tuberculosis H37Rv assessed as reduction in bacterial growth. In kind it is functional.
Data set [3] concerns Staphylococcus aureus. Nature of the data set: Antibacterial activity against Staphylococcus aureus ATCC 29213 assessed as inhibition of bacterial growth measured for 18 to 24 hrs by broth dilution method. In kind it is functional. The conditions noted are these: time 18-24 hrs.
In data set [4] the test system is Mycobacterium tuberculosis. Briefly: Antimycobacterial activity against Mycobacterium tuberculosis H37Rv ATCC 27294 assessed as inhibition of bacterial growth incubated for 18 to 24 hrs by broth dilution method. In kind it is functional.
Data set [5] is described as follows: Cytotoxicity against African green monkey Vero cells assessed as reduction in cell viability incubated for 72 hrs by MTT assay. In kind it is toxicity, cell-based. The conditions noted are these: chlorocebus sabaeus.
Data set [6] is described as follows: Selectivity index, ratio of CC50 for cytotoxicity against African green monkey Vero cells assessed as reduction in cell viability to MIC for antibacterial activity against Mycobacterium tuberculosis H37Rv ATCC 27294 assessed as inhibition of bacterial growth. In kind it is toxicity, cell-based. The conditions noted are these: read-out: Selectivity Index.
The subject of data set [7] is Mycobacterium tuberculosis. Nature of the data set: Antimycobacterial activity against isoniazid-resisitant Mycobacterium tuberculosis ATCC 35822 assessed as inhibition of bacterial growth incubated for 18 to 24 hrs by broth dilution method. In kind it is functional. Particulars: time 18-24 hrs.
For data set [8], the system named is Mycobacterium tuberculosis. Briefly: Antimycobacterial activity against ethambutol-resisitant Mycobacterium tuberculosis ATCC 35837 assessed as inhibition of bacterial growth incubated for 18 to 24 hrs by broth dilution method. In kind it is functional. The conditions noted are these: time 18-24 hrs.
The test system of data set [9] is Mycobacterium tuberculosis. Nature of the data set: Antimycobacterial activity against streptomycin-resisitant Mycobacterium tuberculosis ATCC 35820 assessed as inhibition of bacterial growth incubated for 18 to 24 hrs by broth dilution method. In kind it is functional. The conditions noted are these: time 18-24 hrs.
Data set [10] has as its system Mycobacterium tuberculosis. Briefly: Antimycobacterial activity against rifampicin-resisitant Mycobacterium tuberculosis ATCC 35838 assessed as inhibition of bacterial growth incubated for 18 to 24 hrs by broth dilution method. In kind it is functional. Particulars: time 18-24 hrs.
The nature of data set [11]: Metabolic stability in human liver microsome assessed as elimination rate constant at 1 uM preincubated for 5 mins followed by NADPH addition and measured after 60 mins by LC-MS/MS analysis. In kind it is ADME. Particulars: liver microsomes, time 65 min.
Data set [12] can be described thus: Metabolic stability in human liver microsome assessed as half life at 1 uM preincubated for 5 mins followed by NADPH addition and measured after 60 mins by LC-MS/MS analysis. In kind it is ADME. The conditions noted are these: liver microsomes, time 65 min.
The nature of data set [13]: Metabolic stability in human liver microsome assessed as intrinsic clearance at 1 uM preincubated for 5 mins followed by NADPH addition and measured after 60 mins by LC-MS/MS analysis. The conditions noted are these: liver microsomes, time 65 min, read-out: CLH. In kind it is ADME.
The nature of data set [14]: Aqueous solubility of compound in phosphate buffer at pH 7.4 incubated for 16 hrs by HPLC analysis. In kind it is physicochemical.
Data set [15] concerns Staphylococcus aureus. Briefly: Antibacterial activity against Staphylococcus aureus assessed as reduction in bacterial growth. In kind it is functional.
The target of a further data set is DNA gyrase (Escherichia coli, UniProt P0AES4+P0AES6). Nature of the data set: Inhibition of Escherichia coli DNA gyrase. In kind it is protein-complex assay.
For data set [16], the system named is Mycobacterium tuberculosis. Nature of the data set: Antimycobacterial activity against Mycobacterium tuberculosis assessed as reduction in bacterial growth. In kind it is functional.
Data set [17] is described as follows: Selectivity index, ratio of CC50 for cytotoxicity against African green monkey Vero cells assessed as reduction in cell viability to MIC for antibacterial activity against Staphylococcus aureus ATCC 29213 assessed as inhibition of bacterial growth. In kind it is toxicity, cell-based. The conditions noted are these: read-out: Selectivity Index.
Data set [18] relates to Staphylococcus aureus. Nature of the data set: Antibacterial activity against methicillin-susceptible Staphylococcus aureus assessed as reduction in bacterial growth incubated for 18 to 24 hrs by broth dilution method. In kind it is functional. Particulars: time 18-24 hrs.
Data set [19] relates to Staphylococcus aureus. Nature of the data set: Antibacterial activity against methicillin/ceftriaxone/meropenem/gentamycin/linezolid resistant Staphylococcus aureus NRS 100 assessed as reduction in bacterial growth incubated for 18 to 24 hrs by broth dilution method. The conditions noted are these: time 18-24 hrs. In kind it is functional.
The test system of data set [20] is Staphylococcus aureus. Briefly: Antibacterial activity against methicillin/ceftriaxone/meropenem/gentamycin/linezolid resistant Staphylococcus aureus NRS 119 assessed as reduction in bacterial growth incubated for 18 to 24 hrs by broth dilution method. In kind it is functional. Particulars: time 18-24 hrs.
The subject of data set [21] is Staphylococcus aureus. Briefly: Antibacterial activity against methicillin/ceftriaxone/meropenem resistant Staphylococcus aureus NRS 129 assessed as reduction in bacterial growth incubated for 18 to 24 hrs by broth dilution method. In kind it is functional. The conditions noted are these: time 18-24 hrs.
Data set [22] deals with Staphylococcus aureus. Briefly: Antibacterial activity against methicillin/ceftriaxone/meropenem resistant Staphylococcus aureus NRS 186 assessed as reduction in bacterial growth incubated for 18 to 24 hrs by broth dilution method. In kind it is functional. The conditions noted are these: time 18-24 hrs.
The test system of data set [23] is Staphylococcus aureus. Briefly: Antibacterial activity against methicillin/ceftriaxone/meropenem resistant Staphylococcus aureus NRS 191 assessed as reduction in bacterial growth incubated for 18 to 24 hrs by broth dilution method. In kind it is functional. The conditions noted are these: time 18-24 hrs.
Data set [24] relates to Staphylococcus aureus. Nature of the data set: Antibacterial activity against methicillin/ceftriaxone/meropenem resistant Staphylococcus aureus NRS 192 assessed as reduction in bacterial growth incubated for 18 to 24 hrs by broth dilution method. In kind it is functional. The conditions noted are these: time 18-24 hrs.
The subject of data set [25] is Staphylococcus aureus. Briefly: Antibacterial activity against methicillin/ceftriaxone/meropenem resistant Staphylococcus aureus NRS 193 assessed as reduction in bacterial growth incubated for 18 to 24 hrs by broth dilution method. In kind it is functional. Particulars: time 18-24 hrs.
For data set [26], the system named is Staphylococcus aureus. Briefly: Antibacterial activity against methicillin/ceftriaxone resistant Staphylococcus aureus NRS 194 assessed as reduction in bacterial growth incubated for 18 to 24 hrs by broth dilution method. In kind it is functional. The conditions noted are these: time 18-24 hrs.
The test system of data set [27] is Staphylococcus aureus. Nature of the data set: Antibacterial activity against methicillin/ceftriaxone/meropenem resistant Staphylococcus aureus NRS 198 assessed as reduction in bacterial growth incubated for 18 to 24 hrs by broth dilution method. In kind it is functional. Particulars: time 18-24 hrs.
Data set [28] deals with Staphylococcus aureus. Briefly: Antibacterial activity against methicillin/ceftriaxone/meropenem/gentamycin/vancomycin/teicoplanin resistant Staphylococcus aureus VRS 1 assessed as reduction in bacterial growth incubated for 18 to 24 hrs by broth dilution method. In kind it is functional. The conditions noted are these: time 18-24 hrs.
Data set [29] relates to Staphylococcus aureus. Briefly: Antibacterial activity against methicillin/ceftriaxone/meropenem/vancomycin/teicoplanin resistant Staphylococcus aureus VRS 4 assessed as reduction in bacterial growth incubated for 18 to 24 hrs by broth dilution method. In kind it is functional. Particulars: time 18-24 hrs.
Data set [30] deals with Staphylococcus aureus. Nature of the data set: Antibacterial activity against methicillin/ceftriaxone/meropenem/vancomycin/teicoplanin resistant Staphylococcus aureus VRS 12 assessed as reduction in bacterial growth incubated for 18 to 24 hrs by broth dilution method. In kind it is functional. Particulars: time 18-24 hrs.
Data set [31] concerns Staphylococcus aureus. Nature of the data set: Bacteriostatic activity against Staphylococcus aureus ATCC 29213 at 4 to 8 times MIC incubated for 2 to 24 hrs by time kill assay. In kind it is functional, organism-based. The conditions noted are these: time 2-24 hrs.
The target of data set [32] is DNA gyrase (Escherichia coli) (UniProt P0AES6+P0AES4). Briefly: Inhibition of Escherichia coli DNA gyrase supercoiling activity assessed as reduction in linear DNA formation at 8 times MIC incubated for 90 mins. In kind it is protein-complex assay.

We go through nine compounds from ChEMBL document CHEMBL5329155, “Synthesis and pharmacological evaluation of 1,3-diaryl substituted pyrazole based (thio)urea derivatives as potent antimicrobial agents against multi-drug resistant Staphylococcus aureus and Mycobacterium tuberculosis” (RSC Med Chem, 2023).

In brackets after ≈: the same amount, converted by molar mass. Activity calls are given as the source filed them. The calls are words filed in the database; no cut-off is given here.

As to `S=C(Nc1ccc(Cl)cc1)n1ccc(OCc2ccccc2)n1`, in the data set on Staphylococcus aureus [1], the MIC was determined as 0.15 µM (≈ 0.0516 µg/mL).

Turning to `COC(=O)c1cc(-c2cccc(NC(=O)Nc3ccc(Cl)c(Cl)c3)c2)on1`, the minimum inhibitory concentration (MIC) in [2] stood at 0.25 µg/mL (≈ 0.615 µM).

For the compound `COc1ccc(-c2ccn(-c3ccc(NC(=O)Nc4ccc(F)cc4F)cc3)n2)cc1OC`, the MIC was more than 64 µg/mL in the data set with Staphylococcus aureus [3]; 1 µg/mL (≈ 2.22 µM) in data set [4]; more than 64 µg/mL in [7]; 64 µg/mL (≈ 142 µM) in data set [8]; more than 64 µg/mL in data set [9]; 4 µg/mL (≈ 8.88 µM) in data set [10]. In addition, the CC50 at 72 h in [5] is more than 200 µg/mL. Further, the selectivity ratio in data set [6] was more than 200. The k el at 1 h, 1 µM in data set [11] was 8.33e-05 s⁻¹. The half-life at 1 µM in data set [12] was determined as 2.14 h. Further, the microsomal CLint at 1 µM in data set [13] was determined as 10.4 µL/min/mg. In [14], this compound returned a solubility at 16 h of 6 µg/mL (≈ 13.3 µM).

Consider `CCOC(=O)c1c(N)csc1-c1cn(-c2ccccc2)nc1-c1ccc(C)cc1`, for which, in the data set with Staphylococcus aureus [15], the MIC stood at 0.22 µg/mL (≈ 0.545 µM). The same compound had a half-inhibitory concentration (IC50) at DNA gyrase of 12.3 µM.

In the case of `COc1ccc(-c2ccn(-c3ccc(NC(=O)NCc4ccccc4)cc3)n2)cc1OC`, the MIC with Staphylococcus aureus [3] is more than 64 µg/mL; in [4], 1 µg/mL (≈ 2.33 µM). Moreover, in data set [5], the cytotoxic concentration (CC50) at 72 h is 20 µg/mL (≈ 46.7 µM). Besides, in data set [6], the selectivity ratio turned out to be 20.

For the compound `COc1ccc(-c2nn(-c3ccc(Cl)cc3)cc2Cn2cncn2)cc1`, in data set [2], the minimum inhibitory concentration (MIC) came to 4.4 µg/mL (≈ 12 µM).

Consider `Cc1c(C(=O)NN2CCCCC2)nn(-c2ccc(Cl)cc2Cl)c1-c1ccc(Cl)cc1` [RIMONABANT], for which, in [16], the MIC was determined as 25 µg/mL (≈ 53.9 µM).

As to `CN[C@@H]1[C@H](O[C@H]2[C@H](O[C@H]3[C@H](O)[C@@H](O)[C@H](N=C(N)N)[C@@H](O)[C@@H]3N=C(N)N)O[C@@H](C)[C@]2(O)C=O)O[C@@H](CO)[C@H](O)[C@H]1O` [STREPTOMYCIN], the MIC in data set [4] is 1 µg/mL (≈ 1.72 µM); in [7], 1 µg/mL (≈ 1.72 µM); in data set [8], 1 µg/mL (≈ 1.72 µM); in [9] it was more than 64 µg/mL; in data set [10], 1 µg/mL (≈ 1.72 µM).

In the case of `COc1ccc(-c2ccn(-c3ccc(NC(=O)Nc4ccc(Cl)c(Cl)c4)cc3)n2)cc1OC`, the MIC is 0.25 µg/mL (≈ 0.517 µM) in the data set with Staphylococcus aureus [3]; 32 µg/mL (≈ 66.2 µM) in data set [4]; 0.25 µg/mL (≈ 0.517 µM) in the data set with Staphylococcus aureus [18]; 0.25 µg/mL (≈ 0.517 µM) in the data set with Staphylococcus aureus [19]; 0.25 µg/mL (≈ 0.517 µM) with Staphylococcus aureus [20]; 0.25 µg/mL (≈ 0.517 µM) in the data set on Staphylococcus aureus [21]. For the same compound, the MIC with Staphylococcus aureus [22], in the data set with Staphylococcus aureus [23], with Staphylococcus aureus [24], with Staphylococcus aureus [25], in the data set on Staphylococcus aureus [26] and with Staphylococcus aureus [27] was 0.25 µg/mL (≈ 0.517 µM) each time. Moreover, the minimal inhibitory concentration (MIC) in the data set with Staphylococcus aureus [28], in the data set on Staphylococcus aureus [29] and in the data set on Staphylococcus aureus [30] was 0.25 µg/mL (≈ 0.517 µM) throughout. Also, in [5], the 50% cytotoxic concentration (CC50) at 72 h came to 10 µg/mL (≈ 20.7 µM). Besides, in data set [17], the selectivity ratio came to 40. The result in the data set with Staphylococcus aureus [31] was Active. Besides, in data set [32], the inhibition entry is “Active”. The k el at 1 h, 1 µM in [11] is 0.0001 s⁻¹. The half-life at 1 µM in data set [12] amounted to 1.8 h. Also, the microsomal CLint at 1 µM in data set [13] was 12.4 µL/min/mg. Also, in [14], the solubility at 16 h worked out at 5 µg/mL (≈ 10.3 µM).
